Results on 8 compounds are retold here after ChEMBL document CHEMBL1201862, “PubChem BioAssay data set” (2004).

Test systems include ACHN; CAKI-1; COLO 205; EKVX; HCC 2998; HCT-116; IGROV-1; MDA-N; Malme-3M; NCI-H460; OVCAR-5; OVCAR-8; SF-268; SN12C; SW-620; TK-10; UACC-62; UO-31; CCRF-CEM.
Holding throughout (assay): NCI tumour cell line growth inhibition, 48 h

SMILES strings stand for the structures.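 Following 48 hours of exposure in 96-well plates, responses at five concentrations were used to interpolate endpoints linearly. Abbreviation: GI50, concentration required for 50% inhibition of growth.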 Activity calls are given as the source filed them. No stated cut-off is given here; in the data, active = GI50 up to about 1.1 µM and inactive = higher. Where a SMILES comes first, the peptide text is derived from it. The star is where a group is joined. Boc = CC(C)(C)OC(=O)*

Turning to `COC(=O)C1=C(C(=O)OC)C2OC1C1C2C2(C)C(C)=C(C)C1(C)[S+]2[O-]` (stereo unspecified), the GI50 in the test on ACHN was 2.83 µM (inactive); in the test on CAKI-1 it was 4.93 µM (inactive); with COLO 205 it was 6.43 µM (inactive); in the test with EKVX, 11.5 µM (inactive); in the test on HCC 2998, 20.1 µM (inactive); in the test on HCT-116, 6.08 µM (inactive). The GI50 with IGROV-1 was 16.7 µM (inactive); with MDA-N, 11.3 µM (inactive); in the test with Malme-3M, 6.98 µM (inactive); in the test on NCI-H460, 15.9 µM (inactive); with OVCAR-5, 15.5 µM (inactive); in the test with OVCAR-8, 5.15 µM (inactive). The GI50 was 9.55 µM (inactive) in the test on SF-268; 16.6 µM (inactive) with SN12C; 4.14 µM (inactive) in the test with SW-620; 12.2 µM (inactive) in the test on TK-10; 8.99 µM (inactive) in the test with UACC-62; 4.21 µM (inactive) in the test on UO-31.

Take `O=C(NC/C(Cl)=C/Cl)Nc1cccc2c1CCCC2`: the GI50 is > 100 µM (inactive) in the test with ACHN; 86.9 µM (inactive) in the test on CAKI-1; > 100 µM (inactive) in the test on COLO 205; 82.8 µM (inactive) in the test on EKVX; > 100 µM (inactive) with HCC 2998; > 100 µM (inactive) in the test with HCT-116. Besides, the GI50 is > 100 µM (inactive) in the test with IGROV-1; > 100 µM (inactive) in the test with MDA-N; > 100 µM (inactive) in the test with Malme-3M; 83.8 µM (inactive) with NCI-H460; > 100 µM (inactive) in the test with OVCAR-5; > 100 µM (inactive) in the test with OVCAR-8. Further, the GI50 was > 100 µM (inactive) in the test on SF-268; > 100 µM (inactive) in the test on SN12C; > 100 µM (inactive) in the test on SW-620; 46.7 µM (inactive) in the test with TK-10; > 100 µM (inactive) in the test with UACC-62; > 100 µM (inactive) in the test on UO-31.

With `O=C1C(Cl)=C(NCCCN2CCOCC2)C(=O)c2c(O)ccc(O)c21`, the GI50 in the test on ACHN was 9.18 µM (inactive); in the test on CCRF-CEM it was 1 µM (active); in the test with EKVX, 1 µM (active); with HCC 2998, 2.2 µM (inactive); with HCT-116, 1.59 µM (inactive); in the test on IGROV-1, 1.9 µM (inactive). In addition, the GI50 in the test with MDA-N is 1.72 µM (inactive); in the test on Malme-3M, 1.91 µM (inactive); in the test on NCI-H460 it was 3.13 µM (inactive); in the test with OVCAR-5 it was 1.71 µM (inactive); in the test on OVCAR-8 it was 3.99 µM (inactive); with SF-268, 2.84 µM (inactive). Moreover, the GI50 with SN12C was 2.01 µM (inactive); in the test on SW-620, 1.95 µM (inactive); in the test on TK-10 it was 6.28 µM (inactive); in the test on UACC-62, 1.77 µM (inactive); with UO-31, 1.64 µM (inactive).

Take `CCOC(=O)C1(C(=O)OCC)CCCN1C(=O)[C@H](CNC(=O)OC(C)(C)C)NC(=O)OCc1ccccc1`: the GI50 is > 100 µM (inactive) in the test on ACHN; > 100 µM (inactive) in the test with CAKI-1; 17.4 µM (inactive) with CCRF-CEM; > 100 µM (inactive) with COLO 205; > 100 µM (inactive) with EKVX; 67.6 µM (inactive) in the test on HCC 2998. For the same compound, the GI50 with HCT-116, in the test on IGROV-1, in the test with MDA-N, with NCI-H460, in the test on OVCAR-5 and with SF-268 was > 100 µM (inactive) in each case. Further, the GI50 in the test on SN12C, in the test with SW-620, with TK-10 and in the test on UO-31 was > 100 µM (inactive) throughout.

`C(#Cc1ccccc1)SC1=C(c2ccccc2)S/C(=C(\SC#Cc2ccccc2)c2ccccc2)S1`: the GI50 with ACHN, in the test on CAKI-1, in the test on CCRF-CEM, with COLO 205, in the test with EKVX and with HCC 2998 was > 100 µM (inactive) each time. The GI50 in the test on HCT-116, in the test with IGROV-1, in the test on MDA-N, with NCI-H460, in the test on OVCAR-5 and in the test on OVCAR-8 was > 100 µM (inactive) in each case. Further, the GI50 in the test with SF-268, with SN12C, in the test on SW-620, with TK-10, with UACC-62 and in the test on UO-31 was > 100 µM (inactive) in each case.

As to `COc1ccccc1/C=C/c1nc2ccccc2o1`, the GI50 in the test with ACHN, with CAKI-1, in the test on CCRF-CEM, in the test with COLO 205, in the test with EKVX and in the test with HCC 2998 was > 10 µM (inactive) each time. Besides, the GI50 in the test with HCT-116, in the test with IGROV-1, in the test with MDA-N, in the test on Malme-3M, with NCI-H460 and with OVCAR-5 was > 10 µM (inactive) each time. Also, the GI50 in the test with OVCAR-8, in the test with SF-268, in the test with SN12C, in the test on SW-620, in the test on TK-10 and with UACC-62 was > 10 µM (inactive) each time.

`CCOC(=O)/C=C(/C(=O)OCC)n1ccc(=O)n(Cc2cnnn2CCCCOC(C)=O)c1=O`: the GI50 was 51.2 µM (inactive) in the test on ACHN; 30.2 µM (inactive) in the test with CAKI-1; 2.2 µM (inactive) in the test on CCRF-CEM; 19.1 µM (inactive) in the test with COLO 205; 63.8 µM (inactive) in the test with EKVX; > 100 µM (inactive) in the test with HCC 2998. The GI50 in the test with HCT-116, in the test with IGROV-1, in the test with MDA-N, in the test on NCI-H460, in the test with OVCAR-5 and with OVCAR-8 was > 100 µM (inactive) throughout. Further, the GI50 is > 100 µM (inactive) with SF-268; > 100 µM (inactive) with SN12C; 20.1 µM (inactive) in the test with SW-620; 32.8 µM (inactive) with TK-10; > 100 µM (inactive) with UACC-62; > 100 µM (inactive) in the test with UO-31.

In the case of `CC(NC(=O)C(NC(=O)OC(C)(C)C)C(C)C)C(=O)NCC(=O)O` (stereo not drawn) (Boc-Val-Ala-Gly-OH; configuration not given here), the GI50 in the test on ACHN, with CAKI-1, in the test with COLO 205, in the test on EKVX, with HCC 2998 and in the test on HCT-116 was > 100 µM (inactive) each time. Moreover, the GI50 in the test on IGROV-1, in the test with MDA-N, in the test on Malme-3M, in the test with NCI-H460, in the test on OVCAR-5 and in the test on OVCAR-8 was > 100 µM (inactive) in each case. Moreover, the GI50 in the test with SF-268, with SN12C, with SW-620, in the test with TK-10, in the test on UACC-62 and with UO-31 was > 100 µM (inactive) in each case.
